In patent US20100222423A1, “ASPALATHIN-LIKE DIHYDROCHALCONE, EXTRACTS FROM UNFERMENTED ROOIBOS AND PROCESS FOR PREPARATION” (KNEIPP-WERKE KNEIPP-MITTEL-ZENTRALE GMBH & CO. KG, priority 2007, published 2010):

System: Fischer-344 rats
Experiment: Tele-Stereo-EEG investigations in the rat (field potentials from frontal cortex, hippocampus, striatum, reticular formation)
Type: in vivo
Conditions: for effect on EEG frequencies in comparison with molecular constituents: approximately equimolar administration; for changes in EEG frequencies / power density compared with saline solution: oral single dose 3 or 6 mg/kg, up to 5 hours after application, n=6 rats
Experimental: The changes in the EEG (electroencephalography) frequencies was determined after administration of saline solution (control) and the compound of the formula I orally (3 or 6 mg/kg body weight).
The investigations were carried out analogously to the method described by W. Dimpfel (Dimpfel, W., Preclinical database of pharmaco-specific rat EEG fingerprints (Tele-Stereo-EEG). Eur. J. Med. Res. (2003) δ: 199-207) as follows: 4 Bipolar concentric electrodes together with a microplug on a common baseplate were implanted in six male adult Fischer-344 rats (converted day-night) aged 6 months. The plug served for recording a four-channel transmitter for telemetric transmission of the field potentials derived from frontal cortex, hippocampus, striatum and reticular formation. The signals were subjected to a fast Fourier transformation on a computer system (“EEG analysis” software, OS science operating system, “LabTeam” laboratory computer from MediSyst, Linden, Germany) in realtime and the power density spectra were determined in each case over 60 minutes. The division of the spectra into 6 different frequency ranges permitted the determination of pharmaco-specific changes in relation to the initial values, measured in each case before application, within these frequency bands.
Application protocol of the substances: the substances were applied orally 45 minutes after the beginning of the measurements (initial value). Five minutes later, the measurements were started again, analyzed continuously at least over the next 5 hours and collected in 60 minute periods. The test substance was applied in a dose of 3 and 6 mg/kg (compound of the formula I). The experimental series was begun with the administration of saline solution (control), which led to no abnormal change (FIG. 6).
The statistical comparison of the experiments with the results which were measured after administration of saline solution was effected with the aid of multivariant analysis according to Ahrens and Läuter (cf. H. Ahrens, J. Läuter, “Mehrdimensionale Varianzanalyse” [Multidimensional variance analysis]” (1974), Akademie Verlag, Berlin) on the basis of the changes within the individual frequency bands in all regions of the brain as variables.

Compound	effect on EEG frequencies in comparison with molecular constituents (oral, rat)	changes in EEG frequencies / power density compared with saline solution	changes in EEG frequencies / power density compared with saline solution (listed as compound according to the formula I)	pattern of changes in electrical brain activity compared with reference medicaments (oral single dose, rat)	discriminance analysis of EEG frequency changes (four regions of the brain, 6 frequency bands, 24 variables) (rat, compared with medicaments of the database)	crossing of the blood-brain barrier (inferred from central nervous activity) (rat, oral, substance or its metabolites)
O=C(CCc1ccc(O)c(O)c1)c1c(O)c(C2OC(CO)C(O)C(O)C2O)c(O)c(C2c3c(O)cc(O)cc3OC(c3ccc(O)c(O)c3)C2O)c1O (centres unmarked) [compound according to formula I]	the effect can be achieved	stable changes in the power density in all areas of the brain	dose-dependent changes in the EEG frequencies	corresponded to those after administration of metanicotine, galantamine, tacrine, L-DOPA or nefopam	close to that of galantamine, tacrine and nefopam	evidently cross the blood-brain barrier
catechin [reference compound]	not by parts of the molecule					
O=C(CCc1ccc(O)c(O)c1)c1c(O)cc(O)c([C@@H]2O[C@H](CO)[C@@H](O)[C@H](O)[C@H]2O)c1O [aspalathin]	not by parts of the molecule					
